Reference: patent publication US6825166B2 (priority 2001, dated 2004)

Columns and labels:
Assay type in all cases: cell-based
[1] = tested on: Lu-1 (human lung cancer cell lines); assay: Cytotoxicity (sulforhodamine B growth assay), Protocol A, Lu cells; conditions: 62.5-250 μg/ml added on day of plating, replenished every 3 days
Procedure: (§1) The cell lines selected were KB (human epidermoid carcinoma in the mouth, ATCC #CCL-17), Lu-1 (human lung cancer cell lines, obtained from the Department of Surgical Oncology, University of Illinois, College of Medicine), and hTERT (telomerase-immortalized normal epithelial cell line, Clontech #C4000-1). Various doses of the compounds were evaluated under two treatment protocols. In Protocol A, cultures of each of the KB, Lu and hTERT cells were treated with various doses of the three conjugate compounds from the day of culture onward. In Protocol B, cultures of each of the KB, Lu and hTERT cells were grown to confluence (9 days), and then treated with various doses of the Transferrin-7-paclitaxel conjugate for the duration of the experiment.
(§2) KB was cultured in DMEM (GIBCO) supplemented with 10% fetal bovine serum (FBS), 100 units/ml penicillin G, 100 μg/ml streptomycin sulfate, 0.25 μg/ml amphotericin B (Fungizone) (PSF) (GIBCO) and 1% non-essential amino acids (NAA) (Sigma). Lu was maintained in MEME (GIBCO) supplemented with 10% FBS, PSF, and 1% NAA. hTERT-RPE1 was maintained in DMEM/F-12 (GIBCO) supplemented with 10% FBS+PSF. All cell lines were cultured at 37° C. in 100% humidity with a 5% CO2 atmosphere in air.
(§3) The overall procedures were those as described by Skehan et al., New calorimetric cytotoxicity assay for anticancer-drug screening, J. Natl. Cancer Inst. 82:1107-1112, 1990, and Likhitwitayawuid et al., Cytotoxic and antimalarial bisbenzylisoquinoline alkaloids from Stephania erecta. J. Nat. Prod. 56:30-38, 1993. Cells were typically grown to 60-70% confluence, the medium was changed, and the cells were used for test procedures one day later. Test samples were initially dissolved in sterilized PBS. Serial dilutions were performed using PBS as the solvent, and 10 μl were added to the three wells. PBS (10 μl) was added to control groups. […] The plates were placed on a shaker for 5 minutes, and the absorption was determined at 515 nm using an ELISA plate reader. […]

[2] = tested on: KB (human epidermoid carcinoma in the mouth); assay: Cytotoxicity (sulforhodamine B growth assay), Protocol A, KB cells; conditions: for effect on cell growth (optical density versus time): 62.5-250 μg/ml added on day of plating, replenished every 3 days
Procedure: as §1, §2
(§4) The overall procedures were those as described by Skehan et al., New calorimetric cytotoxicity assay for anticancer-drug screening, J. Natl. Cancer Inst. 82:1107-1112, 1990, and Likhitwitayawuid et al., Cytotoxic and antimalarial bisbenzylisoquinoline alkaloids from Stephania erecta. J. Nat. Prod. 56:30-38, 1993. Cells were typically grown to 60-70% confluence, the medium was changed, and the cells were used for test procedures one day later. Test samples were initially dissolved in sterilized PBS. Serial dilutions were performed using PBS as the solvent, and 10 μl were added to the three wells. PBS (10 μl) was added to control groups. After the plates were prepared, cells were removed from the tissue culture flasks by treatment with trypsin, enumerated, and diluted with fresh media. KB (3×10^4 cells/ml), Lu (5×10^4 cell/ml) and hTERT-RPE1 (4×10^4 cells/ml) cells (in 190 μl of media) were added to the 96-well plates. The plates were incubated at 37° C. in 5% CO2, the cells fixed by addition of 100 μl of cold 20% trichloroacetic acid and incubated at 4° C. for 30 min. The plates were washed with tap water (3×) and dried overnight. The fixed cells were stained 30 min by the addition of 100 μl of 0.4% sulforhodamine B (w/v) dissolved in 1% acetic acid. The plates were washed with 1% acetic acid (3×) and allowed to dry. The bound dye was solubilized by the addition of 10 mM unbuffered Tris base, pH 10 (200 μl/well). The plates were placed on a shaker for 5 minutes, and the absorption was determined at 515 nm using an ELISA plate reader. In each case, a zero-day control was performed by adding an equivalent number of cells to several wells of the 96-well plates and incubating at 37° C. for a period of 30 min. The cells were then fixed with tichloroacetic acid and processed as described above.
The first series of studies were conducted with the Transferrin-3-cholesterol conjugate, the Transferrin-rhodamine123 conjugate and the Transferrin-7-paclitaxel conjugate following Protocol A, in which various concentrations of test compounds ranging from 62.5-250 μg/ml were added on the day of plating, and media were replenished every 3 days, maintaining the same concentrations of the test compounds. As shown by plotting optical density versus time, the Transferrin-3-cholesterol conjugate and the Transferrin-rhodamine123 conjugate were not active with any of the cell lines (FIGS. 5, 6, 8, 9, 11, 12).
Therefore, the experiment was repeated with the Transferrin-7-paclitaxel conjugate with lower concentrations.

[3] = tested on: hTERT (telomerase-immortalized normal epithelial cell line); assay: Cytotoxicity (sulforhodamine B growth assay), Protocol A, hTERT cells; conditions: 62.5-250 μg/ml added on day of plating, replenished every 3 days
Procedure: as §1, §2, §3

[4] = tested on: KB (human epidermoid carcinoma in the mouth); assay: Cytotoxicity (sulforhodamine B growth assay), Protocol B (confluent cultures), KB cells; conditions: KB cells grown 9 days before treatment
Procedure: as §1, §2, §3

[5] = tested on: hTERT (telomerase-immortalized normal epithelial cell line); assay: Cytotoxicity (sulforhodamine B growth assay), Protocol B (confluent cultures), hTERT cells; conditions: for effect on cell growth: hTERT cells grown 9 days before treatment
Procedure: as §1, §2, §4

[6] = tested on: Lu-1 (human lung cancer cell lines); assay: Cytotoxicity (sulforhodamine B growth assay), Protocol B (confluent cultures), Lu cells; conditions: Lu cells grown 9 days before treatment
Procedure: as §1, §2, §3

Substance | effect on cell growth (optical density versus time) [1] | effect on cell growth (optical density versus time) [2] | effect on cell growth (optical density versus time) [3] | effect on cell number ([4]; 0.5 μg/ml) | effect on cell number ([4]; 5 μg/ml) | effect on cell number ([4]; 50 μg/ml) | effect on cell growth ([2]; 0.5 μg/ml) | effect on cell growth ([2]; 5 μg/ml) | effect on cell growth ([2]; 50 μg/ml) | selectivity: cancer cells (KB and Lu) versus normal cells (hTERT) ([5]; conclusion from KB, Lu and hTERT results) | effect on cell growth ([5]; 0.5 μg/ml) | effect on cell growth ([5]; 5 μg/ml) | effect on cell growth ([5]; 50 μg/ml) | cell number on day 16 ([5]; hTERT cells, 50 μg/ml, day 16 versus day 9) | effect on cell number (reduction relative to that at 50 μg/ml) ([6]; 0.5 μg/ml) | effect on cell number (reduction relative to that at 50 μg/ml) ([6]; 5 μg/ml) | effect on cell number ([6]; 50 μg/ml)
Transferrin-rhodamine123 conjugate: rhodamine123 linked to Transferrin using glutaraldehyde as a linker between free amino groups | not active | not active | not active |  |  |  |  |  |  |  |  |  |  |  |  |  | 
Transferrin-3-cholesterol conjugate: 3-acyl-pentanal cholesterol linked with Transferrin; non-cytotoxic molecule control conjugate | not active | not active | not active |  |  |  |  |  |  |  |  |  |  |  |  |  | 
Transferrin-7-paclitaxel conjugate: 7-acyl-pentanal paclitaxel linked to Transferrin through Schiff base; 3 paclitaxel per Transferrin | complete inhibition of cell growth | complete inhibition of cell growth | complete inhibition of cell growth | cell number paralleled that of the control | significant reduction in cell number | significant reduction in cell number | no effect on growth | complete growth inhibition | complete growth inhibition | primarily targeting cancer cells (KB and Lu) while not significantly affecting normal cells (hTERT) | Slight increases in cell growth | Slight increases in cell growth | growth was diminished | approximately the same as on day 9 | negated | diminished | significant reduction in cell number
